Experimental data from article PMC9065678, “BI 1015550 is a PDE4B Inhibitor and a Clinical Drug Candidate for the Oral Treatment of Idiopathic Pulmonary Fibrosis” (Frontiers in Pharmacology, 2022).
Marks after values point to notes of the source that are not given here.

Columns and labels:
Suncus murinus = assay: Determination of emesis in male Suncus murinus; assay type: in vivo
Experimental: All animals (50–55 g) were dosed orally by gavage immediately before transfer to whole-body plethysmography boxes. The volume of application was set to 10 mL/kg body weight. For assessment of the emetic events, animals were placed in the whole-body plethysmography boxes without any access to feed or water for 3 h. The whole-body plethysmography system used to detect emetic events consisted of five major components: 1) plethysmography boxes for mice (Buxco®, PLY 3211-F, Data Sciences International, New Brighton, MN, United States), 2) a pressure transducer with an amplifier, 3) a bias flow regulator, 4) a PC-based system to receive and process the amplified signals, and 5) a PC-based data acquisition system (NOTOCORD-hem™, Instem, Stone, United Kingdom) to process signals, as well as in-house-developed software to detect and identify changes in breathing pattern. Retching and vomiting induced characteristic changes in the breathing pattern of animals and these were recorded by whole-body plethysmography and translated for NOTOCORD recording. A number of preset definitions (computer-based criteria) characteristic for emetic events were determined. Peaks that met the set internal computer-based criteria and exceeded the threshold of more than 600 mV were labeled as emetic events by the system on a standard basis.

[1] = test system: bleomycin-challenged mice; assay: Therapeutic bleomycin mouse model of lung fibrosis; assay type: in vivo
Experimental: Adult, test-naïve, male C57BL6/6J mice, aged 10–12 weeks from Charles River were used (weight 25–27 g). The model was performed essentially as described by [Ackermann et al. (2017)]. Briefly, bleomycin 1 mg/kg (Calbiochem, Darmstadt, Germany) was administered intratracheally in an application volume of 2 mL/kg body weight. Animals were weighed daily. […] BI 1015550 (at final doses of 2.5 and 12.5 mg/kg) was applied by oral gavage using a dose volume of 10 mL/kg twice daily (b.i.d.) from day 8 until day 13. On day 12, animals were anesthetized using 3–4% isoflurane, and lung density was assessed by micro-computed tomography (µCT) analysis with a Quantum FX µCT system (Perkin Elmer) with cardiac gating (without respiratory gating). Images were analyzed using MicroView 2.0 software (GE Healthcare). The Hounsfield unit (HU) corresponding to the peak of the HU-histogram for the segmented pixels was used as a measure of fibrosis. After µCT analysis, animals were allowed to awaken from anesthesia. On day 14, lung function [pressure-volume loops, FVC, and static lung compliance (Cstat)] was measured with a FlexiVent system (SCIREQ, Montreal, PQ, Canada). After the lung function measurement, animals were sacrificed by an overdose of Narcorene and lungs were lavaged with two-times 0.8 mL of PBS. BALF was used to determine differential cell counts (Sysmex XT-1800iVet) and the number of monocytes. Left lung lobes were fixed with 4% paraformaldehyde and inflated under 20 cm water pressure for 20 min. Samples were embedded in paraffin, sectioned (3 μm thickness), and stained for hematoxylin and eosin (HE) and Masson’s trichrome to assess general morphology and fibrotic change following standard histopathology operating protocols. Images were taken with an AxioCam MRm microscope camera using AxioVision software (Carl Zeiss Microscopy, LLC, White Plains, NY, United States). Lung sections stained with Masson’s trichrome were assessed for severity of pulmonary fibrosis using the Ashcroft score. The protocol used is therapeutic, i.e. treatment commenced at a time where lung fibrosis should have developed, in line with the recommendations of the American Thoracic Society panel on IPF models ([Jenkins et al., 2017]).

[2] = test system: LPS-stimulated TNF-α release; assay: LPS-induced TNF-α release in human whole blood; assay type: cell-based; details: LPS 0.1 µg/mL
Experimental: Heparinized whole blood was collected from the Aorta abdominalis of WI (Han) male rats (Charles River Laboratories, Sulzfeld, Germany) and from healthy male human donors, and treated with 1 µL (rat) or 2.5 µL (human) of BI 1015550 or vehicle [final DMSO concentration 0.5% (v/v)]. Final assay volumes were 200 μL (rat) and 500 μL (human). After incubation for 30 min at 37°C, 95% humidity, and 5% CO2, cultures were treated with LPS [final concentration 10 µg/mL (rat), 0.1 µg/mL (human)] or saline. After 7 h, plates were centrifuged at 3.200 × g at 4°C for 10 min and plasma was used for cytokine measurement. Meso Scale Discovery (MSD) (Rockville, MD, United States) rat and human pro-inflammatory panels were used for detection of TNF-α and IL-6 in rat plasma [diluted 1:2 (v/v)]) and human plasma [negative control undiluted, other samples diluted 1:200 (v/v)] according to the manufacturer’s instructions.

[3] = test system: LPS-induced TNF-α release in whole blood ex vivo; assay: LPS-induced TNF-α release in whole blood ex vivo in mice; parameters: species or system mouse
Experimental: BI 1015550 was suspended in H2O plus three equivalents’ HCl (i.e. 66 µL HCl per mg of drug substance) to concentrations of […]. Female NMRI mice from Charles River (25–30 g) were used. Either vehicle (H2O plus three equivalents’ HCl) or BI 1015550 was administered orally (by gavage) in a volume of 10 mL/kg body weight resulting in final doses of 3.0, 1.0, 0.1, and 0.01 mg/kg body weight. 2 h after administration, the animals were anesthetized and blood was drawn by retroorbital puncture with heparinized capillaries before sacrifice by cervical dislocation. Blood was collected in Lithium-Heparin Microvettes® for anticoagulation. 100 µL of whole blood was pipetted into an Eppendorf tube containing either LPS solution (final concentration 900 ng/mL) or solvent. Subsequently, the samples were placed for 4 h in an incubator at 37°C, […], and 95% humidity before plasma was prepared by a two-step centrifugation at 10.840 × g over 10 min at 4°C. TNF-α concentrations in the plasma samples were determined using a commercially available TNF-α ELISA kit (BD OptEIA™ Mouse TNF ELISA Set from Becton Dickinson) according to the manufacturer’s instructions.

[4] = mice, 2.5 mg/kg b.i.d. oral day 8 to day 13, measured day 14
[5] = mice, 12.5 mg/kg b.i.d. oral day 8 to day 13, measured day 14, 12.5 mg/kg

With [O-][S+]1CCc2nc(N3CCC(c4ncc(Cl)cn4)CC3)nc(NC3(CO)CCC3)c21 (stereo not shown) [BI 1015550] the Animals showing emesis (Suncus murinus; 0.5 mg/kg oral, 3 h observation, data not shown) was 3 of 24, the “Mean emetic events per animal” value (Suncus murinus; 0.5 mg/kg oral, data not shown) was 0.1 and the Animals showing emesis (Suncus murinus; 10 × ED50 oral (BI 1015550 6 mg/kg, roflumilast 10 mg/kg)) was 5 out of 24. For the same molecule, the “% of vomiting animals, emesis at 10 × ED50” value (Suncus murinus; oral (BI 1015550 6 mg/kg, roflumilast 10 mg/kg), 24 animals) was 21%, the “Effect on BALF protein and monocytes, airway compliance” value ([1]; bleomycin mice) was “no effects” and the “Effect on weight gain” value ([1]; bleomycin mice, data not shown) was “no significant effect”. For the same molecule, the “Fibrosis < score, % improvement compared to bleomycin control” value ([1]; mice, 2.5 mg/kg b.i.d. oral day 8 to day 13) was 2%, the “Cstat (mL/cm H2O), % improvement compared to bleomycin control” value [1, 4] was 21% and the “FVC (mL), % improvement compared to bleomycin control” value [1, 4] was 18%. The “Ratio tissue density, % improvement compared to bleomycin control” value ([1]; mice, 2.5 mg/kg b.i.d. oral day 8 to day 13, µCT) was 4%, the “Fibrosis < score, % improvement compared to bleomycin control” value ([1]; mice, 12.5 mg/kg b.i.d. oral day 8 to day 13) was 11% and the “Cstat (mL/cm H2O), % improvement compared to bleomycin control” value [1, 5] was 40* %. For the same molecule, the “FVC (mL), % improvement compared to bleomycin control” value [1, 5] was 41%, the “Ratio tissue density, % improvement compared to bleomycin control” value ([1]; mice, 12.5 mg/kg b.i.d. oral day 8 to day 13, µCT) was 39% and the “Improvement in PV loops” value ([1]; mice, higher dose (12.5 mg/kg b.i.d.), p < 0.05) was 40%. The IC50 [2] was 670 nM, the “Maximal inhibition of TNF-α release” value [2] was 70–80% and the “TNF-α concentration in plasma, inhibition in % given as negative number” value ([3]; 0.01 mg/kg p.o.) was −38%. For the same molecule, the “TNF-α concentration in plasma, inhibition in % given as negative number” value ([3]; 0.1 mg/kg p.o.) was −50%, the “TNF-α concentration in plasma, inhibition in % given as negative number” value ([3]; 1.0 mg/kg p.o.) was −83% and the “Inhibition of TNF-α” value ([3]; 3 mg/kg oral, initial experiment, data not shown) was 93%. For the same molecule, the “ED50 of LPS-induced TNF-α release” value ([3]; oral, blood taken 2 h after administration, LPS 4 h) was 0.04 mg/kg.
